This note sets out measurements from ChEMBL document CHEMBL6087460, “Generating a Peptide Library Using the Repeats of Amino Acid Scaffolds Created by Sliding the Framework of a 7-mer Human Chemerin Segment and Discovery of Potent Antibacterial and Antimycobacterial Peptides” (J Med Chem, 2025).

Converted amounts (≈) assume the structure as drawn. The source made the active and inactive calls. A value given as a limit tells only on which side of the number the result lay.

Assay [1] relates to Mycobacterium tuberculosis variant bovis. The experiment in a line: Antitubercular activity against Mycobacterium bovis BCG incubated for 5 days by rezasurin dye based assay. It counts as functional. The note with it: 120 h, time 5 day.
For assay [2] the test system is unchanged. In words: Antitubercular activity against Mycobacterium bovis BCG infected in BALB/c mouse assessed as decrease in bacterial count in lungs at 2.5 to 5 mg/kg, iv administered once a day for 2 weeks. It counts as functional, organism-based. The note with it: dose 2.5-5 mg/kg.
Assay [3] shares this test system. In words: Antitubercular activity against Mycobacterium bovis BCG infected in BALB/c mouse assessed as decrease in bacterial count in spleen at 2.5 to 5 mg/kg, iv administered once a day for 2 weeks. The note with it: dose 2.5-5 mg/kg. Type of assay: functional, organism-based.
Assay [4] has the same test system. In words: Antitubercular activity against Mycobacterium bovis BCG infected in BALB/c mouse assessed as bacterial survival in spleen at 5 mg/kg, iv administered once a day for 2 weeks measured on day 15 relative to control. Type of assay: functional. The note with it: 336 h.
The test system is the same in assay [5]. The experiment in a line: Antimycobacterial activity against Mycobacterium bovis BCG infected in human THP-1 cells derived macrophages assessed as reduction in intracellular bacterial survival at 20 ug/ml incubated for 24 hrs relative to control. The note with it: dose 20 µg/ml. It counts as functional.
The test system is the same in assay [6]. The experiment in a line: Antimycobacterial activity against Mycobacterium bovis BCG infected in human THP-1 cells derived macrophages assessed as reduction in intracellular bacterial survival at 10 ug/ml incubated for 24 hrs relative to control. The note with it: dose 10 µg/ml. Type of assay: functional.
Assay [7] shares this test system. The experiment in a line: Antitubercular activity against Mycobacterium bovis BCG infected in BALB/c mouse assessed as bacterial survival in lungs at 5 mg/kg, iv administered once a day for 2 weeks measured on day 15 relative to control. Particulars: 336 h. It counts as functional.

As to H-LGRLLGRLLGRL-OH, in assay [1], the MIC came out at 5 µM.
H-RLVRLVRLVRLVRLV-OH yielded an MIC in assay [1] greater than 10 µM.
Still for that read-out and setting: the result for H-RLVRLVRLVRLV-OH reads 5 µM; that for H-GRLGRLGRLGRLGRL-OH, 5 µM.
Consider `CO[C@H]1/C=C/O[C@@]2(C)Oc3c(C)c(O)c4c(O)c(c(/C=N/N5CCN(C)CC5)c(O)c4c3C2=O)NC(=O)/C(C)=C\C=C\[C@H](C)[C@H](O)[C@@H](C)[C@@H](O)[C@@H](C)[C@H](OC(C)=O)[C@@H]1C` [RIFAMPIN], for which, in assay [1], 0.25 µM (≈ 0.206 µg/mL) was the least that counted as inhibitory (MIC).
In turn, H-KVLKVLKVLKVL-OH came in with an MIC in assay [1] greater than 10 µM.
As for H-GRLVGRLVGRLVGRLV-OH, the result in assay [2] and in assay [3] was Active. The survival at 5 mg/kg in assay [4] and in assay [7] was roughly 10% in each case. In addition, 2.5 µM was the least that counted as inhibitory in assay [1] (MIC). For the same compound, the Activity came out at 20% in assay [5] and 35% in assay [6].
For the compound H-KVLGKVLGKVLGKVLG-OH, the MIC in assay [1] is greater than 10 µM.
As to H-VLGRVLGRVLGRVLGR-OH, the outcome in assay [2] and in assay [3] was Active. Moreover, the survival at 5 mg/kg in assay [4] and in assay [7] was roughly 10% each time. In assay [1], this compound came in with an MIC of 2.5 µM. Also, the Activity in assay [5] worked out at 10%; in assay [6], 25%.
In assay [1], H-RLRLRLRLRL-OH returned an MIC of 10 µM.

The MIC is the smallest concentration in the dilution series that meets the test's criterion for growth inhibition. Low values mean greater potency, high ones weaker potency.
